Read-outs that look alike come from different tables or passages of the source.
Key:
[1] = test system: HEK293 parental cells; experiment: Cytotoxicity (cell viability, CCK8) assay; assay type: cell-based; settings: Table 28, 3 days
Experimental: (§1) Next, exemplary anti-IL-4R (H4H083P2) and anti-IL-6R (VV6A9-5) antibodies were conjugated to the cytotoxic drug DM1 and their potency in cytotoxicity assays was evaluated. Briefly, HEK293/IL-4R, Ramos or KG-1 cell lines, as well as HEK293 parental cells were seeded in PDL-coated 96-well plates at 1500 to 10,000 cells per well. ADCs or free DM1 (as the methyl disulfide derivative DM1-SMe) were added to the cells at final concentrations ranging from 300 nM to 15 pM and incubated for 3 days. Cells were incubated with CCK8 (Dojindo, Rockville, Md.) for the final 1-3 hours and the absorbance at 450 nm (OD450) was determined on a Flexstation3 (Molecular Devices, Sunnyvale, Calif.). Background OD450 values from digitonin (40 nM) treated cells were subtracted from all wells and viability was expressed as a percentage of the untreated controls. IC50 values were determined from a four-parameter logistic equation over a 10-point response curve (GraphPad Prism).

[2] = test system: HEK293/IL-4R cells; experiment: Cytotoxicity (cell viability, CCK8) assay; assay type: cell-based; settings: HEK293/hIL4R; Table 28; 3 days
Experimental: as §1

[3] = test system: KG-1 cells; experiment: Cytotoxicity (cell viability, CCK8) assay; assay type: cell-based; settings: Table 28, 3 days
Experimental: as §1

[4] = test system: Ramos cells; experiment: Cytotoxicity (cell viability, CCK8) assay; assay type: cell-based; settings: Table 28, 3 days
Experimental: as §1

[5] = test system: SK-BR-3 cells; experiment: Cell viability (cell kill) assay; assay type: cell-based; settings: Table 16
[6] = test system: MCF7 (MCF7/ATCC) cells; experiment: Cell viability (cell kill) assay, nuclear counts; assay type: cell-based; settings: MCF7
How it was run: (§2)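 Anti-PRLR ADCs or free DM1-SMe were added at 500 nM to 5 pM final to cells seeded overnight and were incubated 3 days. MCF7 lines were fixed with 4% formaldehyde plus Hoechst 33342, and nuclei were counted by imaging, with digitonin […] background subtracted. Viability was expressed as % of untreated cells, and IC50 was obtained from a 4-parameter fit of a 10-point curve.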

[7] = test system: HEK293/hPRLR (293/hPRLR) cells; experiment: Cell viability (cell kill) assay; assay type: cell-based, human; settings: 293/PRLR; for IC50: read-out: IC50
Description: (§3) PRLR-overexpressing cells, including HEK293, PC3, MCF7 and NCI-N87, were generated to assess the ability of anti-PRLR conjugated antibodies to reduce cell viability. For comparative purposes, PC3 and T47D cells with overexpressed ErbB2 were also generated, as well as an MCF7 cell line over-expressing both hPRLR and hErbB2. Briefly, Lipofectamine® 2000-mediated transfection methodology was utilized to generate HEK293 cells expressing human PRLR (HEK293/hPRLR) or human ErbB2 (HEK293/hErbB2). Lipofectamine LTX with Plus Reagent was used to generate PC3 cells expressing human PRLR (PC3/hPRLR) or human ErbB2 (PC3/hErbB2). Lentiviral-mediated transduction was utilized to generate MCF7 cells expressing human PRLR (MCF7/hPRLR), NCI-N87 cells expressing human PRLR (NCI-N87/hPRLR), T47D cells over-expressing human ErbB2 (T47D/hErbB2), and MCF7 cells expressing both human PRLR and human ErbB2 (MCF7/hPRLR/hErbB2). All lines were selected for at least two weeks in complete growth media plus appropriate selection reagents. Stably expressing populations were enriched for PRLR expression via FACS using the anti PRLR antibody Control I.
(§4) Next, the ability of anti-PRLR-DM1 antibody-drug conjugates (i.e., anti-PRLR antibodies conjugated to DM1 via a non-cleavable linker [SMCC]) to reduce cell viability was determined using in vitro cell based assays. Cells were seeded in PDL-coated 96 well plates at 1500 to 10000 cells per well in complete growth media and allowed to grow overnight. For cell viability curves, ADCs or free DM1 (as the methyl disulfide derivative DM1-SMe) were added to the cells at final concentrations ranging from 500 nM to 5 pM and incubated for 3 days. The 293, PC3 and T47D cells were incubated with CCK8 (Dojindo, Rockville, Md.) for the final 1-3 hours and the absorbance at 450 nm (OD450) was determined on a Flexstation3 (Molecular Devices, Sunnyvale, Calif.). MCF7 cells were treated with Hoechst 33342 nuclear stain while being fixed with 4% formaldehyde. Images were acquired on the ImageXpress micro XL (Molecular Devices, Sunnyvale, Calif.) and nuclear counts were determined via Columbus image analysis software (Perkin Elmer, Shelton, Conn.). Background OD450 values (PC3, 293, and T47D) or nuclear counts (MCF7) from digitonin (40 nM) treated cells was subtracted from all wells and viability was expressed as a percentage of the untreated controls. IC50 values were determined from a four-parameter logistic equation over a 10-point response curve (GraphPad Prism).

[8] = test system: MCF7/hPRLR/hErbB2 cells; experiment: Cell viability (cell kill) assay; assay type: cell-based, human; settings: MCF/PRLR + ErbB2; Table 17
Description: as §3, §4
(§5) The potency of anti-PRLR conjugated antibodies compared with a similarly conjugated antibody to the co-expressed ErbB2 cell surface target was also assessed. Both PRLR and ErbB2 are expressed in a majority of breast cancers, and anti-ErbB2 antibodies conjugated to DM1 have shown clinical efficacy in targeting ErbB2 (+) breast cancer (Hurvitz et al; 2013).

[9] = test system: T47D/hErbB2 cells; experiment: Cell viability (cell kill) assay; assay type: cell-based, human; settings: T47D/ErbB2; Table 16
Description: as §3, §4, §5

[10] = test system: NCI-N87/hPRLR cells; experiment: Cell viability (cell kill) assay; assay type: cell-based, human; settings: NCI-N87/PRLR; Table 17
Description: as §3, §4, §5

[11] = test system: PC3/hErbB2 cells; experiment: Cell viability (cell kill) assay; assay type: cell-based, human; settings: PC3/ErbB2; Table 15
Description: as §3, §4, §5

[12] = test system: HEK293/hErbB2 cells; experiment: Cell viability (cell kill) assay; assay type: cell-based, human; settings: 293/ErbB2; Table 14
Description: as §3, §4, §5

[13] = test system: MCF7/hPRLR (MCF7/PRLR) cells; experiment: Cell viability (cell kill) assay, nuclear counts; assay type: cell-based, human
How it was run: as §2

[14] = test system: T47D cells; experiment: Cell viability (cell kill) assay; assay type: cell-based; settings: T47D; for IC50: read-out: IC50
How it was run: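 T47D cells grown overnight, then exposed 3 days to anti-PRLR ADCs (DM1 via non-cleavable SMCC linker, or other maytansinoid toxins) or free DM1-SMe, 500 nM to 5 pM. Viability by CCK8 OD450, digitonin background subtracted, as % of untreated; IC50 from 10-point four-parameter fit. PRL (15 nM) co-incubation tested separately.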

[15] = test system: PC3/hPRLR cells; experiment: Cell viability (cell kill) assay; assay type: cell-based, human; settings: PC3/PRLR
How it was run: (§6)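 PC3 and PC3/hPRLR (lipofection-generated, FACS-enriched for PRLR) cells exposed 3 days to anti-PRLR ADCs or free DM1-SMe, 500 nM to 5 pM. Viability by CCK8 OD450, digitonin background subtracted, as % of untreated; IC50 from four-parameter fit of 10-point curves.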

[16] = test system: HEK293 (293) cells; experiment: Cell viability (cell kill) assay; assay type: cell-based; settings: 293
How it was run: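 Anti-PRLR–DM1 ADCs (non-cleavable SMCC linker) or free DM1-SMe, 500 nM to 5 pM for 3 days on parental or hPRLR-overexpressing lines. HEK293: CCK8 OD450; MCF7: Hoechst nuclear counts by imaging.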

[17] = test system: PC3 cells; experiment: Cell viability (cell kill) assay; assay type: cell-based
How it was run: as §6

[18] = test system: NCI-N87 cells; experiment: Cell viability (cell kill) assay; assay type: cell-based; settings: Table 17
Description: as §3, §4
The potency of anti-PRLR conjugated antibodies compared with a similarly conjugated antibody to the co-expressed ErbB2 cell surface target was also assessed. […]

## COc1cc2cc(c1Cl)N(C)C(=O)C[C@H](OC(=O)[C@H](C)N(C)C(=O)CCS)[C@]1(C)O[C@H]1[C@H](C)[C@@H]1C[C@@](O)(NC(=O)O1)[C@H](OC)/C=C/C=C(\C)C2 [DM1 (Free Drug)]
[1]
  % Kill: 100%
  IC50: 0.27 nM
[2]
  % Kill: 98%
  IC50: 0.33 nM
[3]
  % Kill: 89%
  IC50: 1.26 nM
[4]
  % Kill: 100%
  IC50: 0.34 nM

## COc1cc2cc(c1Cl)N(C)C(=O)C[C@H](OC(=O)[C@H](C)N(C)C(=O)CCS)[C@]1(C)O[C@H]1[C@H](C)[C@@H]1C[C@@](O)(NC(=O)O1)[C@H](OC)/C=C/C=C(\C)C2 [DM1 (free drug)]
[5]
  % Kill: 74%
  IC50: 0.39 nM
[6]; Table 12, 3 days
  % Kill: 83%
  IC50: 1.17 nM
[6]; Table 16
  % Kill: 78%
  IC50: 0.54 nM
[7]; Table 11, 3 days
  % Kill: 97%
  IC50: 0.36 nM
[7]; Table 14
  % Kill: 95%
  IC50: 0.82 nM
[8]
  % Kill: 77%
  IC50: 0.82 nM
[9]
  % Kill: 71%
  IC50: 0.18 nM
[10]
  % Kill: 98%
  IC50: 1.45 nM
[11]
  % Kill: 85%
  IC50: 0.42 nM
[12]
  % Kill: 100%
  IC50: 0.26 nM
[13]; Table 12, 3 days
  % Kill: 88%
  IC50: 1.47 nM
[13]; Table 17
  % Kill: 79%
  IC50: 1.85 nM
[14]; Table 12, 3 days
  % Kill: 86%
  IC50: 0.45 nM
[14]; Table 16
  % Kill: 80%
  IC50: 0.21 nM
[15]; Table 11, 3 days
  % Kill: 80%
  IC50: 0.59 nM
[15]; Table 15
  % Kill: 82%
  IC50: 0.24 nM
[16]; Table 11, 3 days
  % Kill: 98%
  IC50: 0.27 nM
[16]; Table 14
  % Kill: 95%
  IC50: 0.5 nM
[17]; Table 11, 3 days
  % Kill: 91%
  IC50: 0.47 nM
[17]; Table 15
  % Kill: 88%
  IC50: 0.44 nM
[18]
  % Kill: 95%
  IC50: 0.84 nM

Source: patent publication US9688764B2, “Methods of treating breast cancer by administering anti-human prolactin receptor (PRLR) antibodies” (REGENERON PHARMACEUTICALS, INC., priority 2013, dated 2017)
